From paper PMC10321483 (Chemical Science, 2023)

Target: T1, LdtMt2-ebselen complex (Mycobacterium tuberculosis, UniProt I6Y9J2)
T1 construct: made in house; host or cells: E. coli
Assay: SPE-MS active-site selectivity assay with ebselen-preincubated LdtMt2
Format: binding
Settings: inhibitor 100 µM, 24 h
Method: LdtMt2 contains only a single cysteine residue (Cys354). However, as several identified electrophiles are able to react with residues other than cysteine,[30,31] it was assessed whether covalent modification of LdtMt2 by the inhibitors is related to reaction with Cys354. […] Apparently complete LdtMt2 modification by a single molecule of ebselen (+274 Da) was observed. Inhibitors 1–21 were then added to the ebselen derived LdtMt2 complex (Fig. S11 ^†).
Figure S11. Protein observed SPE-MS based active -site selectivity assay s. LdtMt2 (1 µM) was 153 preincubated with ebselen (10 µM, a known Ldt Mt2 inhibitor3, which reacts with the nucleophilic 154 Cys354) for 1 h in 50 mM Tris, pH 7.5 , prior to addition of inhibitors 1-15 (100 µM). Samples were 155 analysed after an additional 24 h incubation at room temperature. The spectrum in blue corresponds 156 to LdtMt2 reacted with ebselen. The spectrum in green corresponds to LdtMt2 reacted with the specified 157 inhibitor, following preincubation with ebselen. The spectrum in purple corresponds to LdtMt2 reacted 158 with the specified inhibitor. Deconvoluted spectra, obtained using the maximum entropy algorithm in 159 the MassHunter Workstation Qualitative Analysis B.07.00 program (Agilent), are shown. 160
(1 picture or pasted object on this page, not shown here)

T1 sequence (I6Y9J2 56-408, one chain of several): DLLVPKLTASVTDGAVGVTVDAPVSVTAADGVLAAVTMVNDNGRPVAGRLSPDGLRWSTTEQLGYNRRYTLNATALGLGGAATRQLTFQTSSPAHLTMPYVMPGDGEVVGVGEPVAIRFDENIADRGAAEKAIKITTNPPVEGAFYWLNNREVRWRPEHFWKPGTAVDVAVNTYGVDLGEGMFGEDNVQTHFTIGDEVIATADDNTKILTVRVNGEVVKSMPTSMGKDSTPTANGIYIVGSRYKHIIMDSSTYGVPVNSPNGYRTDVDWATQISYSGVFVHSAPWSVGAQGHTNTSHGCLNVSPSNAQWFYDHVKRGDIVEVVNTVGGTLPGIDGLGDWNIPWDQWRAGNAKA

| SMILES | reaction with the LdtMt2-ebselen complex (Cys354 unavailable) |
| --- | --- |
| COc1ccc(CN2C(=O)C(=O)c3cc(Br)cc(C)c32)cc1OC [Compound 17] | observed to react with the LdtMt2-ebselen complex |
| CCOc1ccc(CN2C(=O)C(=O)c3cc(Br)cc(C)c32)cc1OC [Compound 16] | observed to react with the LdtMt2-ebselen complex |
| CC(C)(C)OC(=O)Nc1ccc(N2C(=O)C=CC2=O)cc1 [Compound 6] | observed to react with the LdtMt2-ebselen complex |
